# Assay results: patent US5980913A, “Peptides having immunomodulatory activity” (Biochem Pharma, Inc., priority 1994, dated 1999)
# Where a SMILES comes first, the peptide text is derived from it. [ ]: non-standard residue; d: D form.
# What was measured:
# [1] = tested on: C57BL/6 lymphocytes with irradiated DBA/2 cells; experiment: Mixed lymphocyte reaction (MLR), 3H thymidine uptake; type: cell-based, mice; details: 10^-7 M
# Excerpt: 1. Cytotoxic T Lymphocytes (CTL) Mixed Lymphocyte Reaction (MLR) and Mitogenic Response Assays
# The protocols used are described in Hudson L., Haay F., Pratical immunology, 3rd edition, Blackwell, Scientific publications, Oxford 1989, p. 158-162, and p.447.
# Lymphocytes were isolated from C57BL/6 mice and DBA/2 mice in accordance to techniques well known in the art. Cell concentration was adjusted to 10×10^6 cell/ml for each assay. The cells isolated from DBA/2 mice were irradiated with 3000 Rads.
# In a 6 well plate, each well was set up with:
# The cells were incubated for five days at 37° C. in 5% CO2, after which CTL and MLR assays were performed.
# b) Mixed Lymphocyte Reaction (MLR)
# Mixed lymphocyte reaction is an in vitro counterpart of the allograft rejection. Briefly, lymphocyte activation (mitotic response) is obtained when cells from two inbred strains or from two outbred individuals of any species are mixed in in vitro culture. To have a unidirectional response, the proliferation of either cell type may be blocked with X-ray irradiation or mitomycin C treatment. After 4 days incubation, ^3 H thymidine uptake and cytotoxicity assays (CTL) were performed. The cells were then resuspended and 100 μl of cell suspension was deposited in each well of a 96 well plate. 1 μCi of tritiated thymidine was added for 6 hours. After incubation, the cells were then harvested and counted using a Microbeta counter.
# [2] = tested on: spleen cell subsets (cell surface antigens); experiment: In vivo/ex vivo immunophenotyping in the spleen, mice treated 4 consecutive days; parameters: species or system C57BL/6 mice
# Procedure: C57BL.backslash.6 mice are treated with 0, 50, 100, 200, and 300 mg/kg of drug (in saline) for 4 consecutive days. Blood is taken by cardiac puncture on day 5, and the lymphocytes are isolated from spleen in the following manner:
# The spleen is aseptically removed and mashed by pressing against a steel strainer with a rubber plunger. The cell suspension is separated from the clumps by letting them settle at the bottom of the tube. The cell suspension is then separated on a Lymphocyte M layer and the interface is recovered and resuspended in media.
# 1. Immunophenotyping (blood and spleen)
# Cell immunophenotyping is performed on blood and spleen. The following cell surface antigens are analyzed:
# CD4 (T helper/inducer, binds class II-restricted T cells);
# CD8 (cytotoxic T cells, CTL adhesion);
# MAC-1 (monocyte/macrophage);
# NK (natural killer cells);
# CD45 (all leukocytes, protein tyrosine phosphatase).
structure (smiles),measurement,setting,value
"NCCCC[C@@H](N)C(=O)N[C@@H](CC(N)=O)C(=O)N1CCC[C@H]1C(=O)N[C@@H](Cc1ccc(O)cc1)C(=O)O [PEPTIDE #5, H-(D-Lys)-Asn-Pro-Tyr-OH] (H-[dK]NPY-OH)",MLR,[1],2.1 ×
same,"CD4+ CD8+ cell subset, relative percentage, MEAN","[2]; 50 mg/kg, first assay",0.58
same,"CD4+ CD8- cell subset, relative percentage, MEAN","[2]; 50 mg/kg, first assay",33.05
same,"CD4+ CD11b+ cell subset, relative percentage, MEAN","[2]; 50 mg/kg, first assay",0.83
same,"CD4+ CD11b- cell subset, relative percentage, MEAN","[2]; 50 mg/kg, first assay",23.88
same,"CD4- CD8+ cell subset, relative percentage, MEAN","[2]; 50 mg/kg, first assay",5.73
same,"CD4- CD8- cell subset, relative percentage, MEAN","[2]; 50 mg/kg, first assay",60.65
same,"CD4- CD11b+ cell subset, relative percentage, MEAN","[2]; 50 mg/kg, first assay",3.63
same,"CD4- CD11b- cell subset, relative percentage, MEAN","[2]; 50 mg/kg, first assay",71.73
same,"CD45+ CD4+ cell subset, relative percentage, MEAN","[2]; 50 mg/kg, first assay",21.43
same,"CD45+ CD4- cell subset, relative percentage, MEAN","[2]; 50 mg/kg, first assay",55.25
same,"CD45+ CD8+ cell subset, relative percentage, MEAN","[2]; 50 mg/kg, first assay",5.38
same,"CD45+ CD8- cell subset, relative percentage, MEAN","[2]; 50 mg/kg, first assay",66.00
same,"CD45- CD4+ cell subset, relative percentage, MEAN","[2]; 50 mg/kg, first assay",13.28
same,"CD45- CD4- cell subset, relative percentage, MEAN","[2]; 50 mg/kg, first assay",10.03
same,"CD45- CD8+ cell subset, relative percentage, MEAN","[2]; 50 mg/kg, first assay",0.63
same,"CD45- CD8- cell subset, relative percentage, MEAN","[2]; 50 mg/kg, first assay",28.05
same,"Ly5(B) cell subset, relative percentage, MEAN","[2]; 50 mg/kg, first assay",57.85
same,"NK+ CD3+ cell subset, relative percentage, MEAN","[2]; 50 mg/kg, first assay",1.50
same,"NK+ CD3- cell subset, relative percentage, MEAN","[2]; 50 mg/kg, first assay",3.78
same,"NK- CD3+ cell subset, relative percentage, MEAN","[2]; 50 mg/kg, first assay",38.13
same,"NK- CD3- cell subset, relative percentage, MEAN","[2]; 50 mg/kg, first assay",56.68
same,"TCR(T) cell subset, relative percentage, MEAN","[2]; 50 mg/kg, first assay",40.23
same,"CD4+ CD8+ cell subset, relative percentage, MEAN","[2]; 50 mg/kg, second assay",0.63
same,"CD4+ CD8- cell subset, relative percentage, MEAN","[2]; 50 mg/kg, second assay",36.53
same,"CD4+ CD11b+ cell subset, relative percentage, MEAN","[2]; 50 mg/kg, second assay",0.38
same,"CD4+ CD11b- cell subset, relative percentage, MEAN","[2]; 50 mg/kg, second assay",14.85
same,"CD4- CD8+ cell subset, relative percentage, MEAN","[2]; 50 mg/kg, second assay",5.85
same,"CD4- CD8- cell subset, relative percentage, MEAN","[2]; 50 mg/kg, second assay",57.03
same,"CD4- CD11b+ cell subset, relative percentage, MEAN","[2]; 50 mg/kg, second assay",3.60
same,"CD4- CD11b- cell subset, relative percentage, MEAN","[2]; 50 mg/kg, second assay",81.15
same,"CD45+ CD4+ cell subset, relative percentage, MEAN","[2]; 50 mg/kg, second assay",29.23
same,"CD45+ CD4- cell subset, relative percentage, MEAN","[2]; 50 mg/kg, second assay",49.85
same,"CD45+ CD8+ cell subset, relative percentage, MEAN","[2]; 50 mg/kg, second assay",6.03
same,"CD45+ CD8- cell subset, relative percentage, MEAN","[2]; 50 mg/kg, second assay",75.15
same,"CD45- CD4+ cell subset, relative percentage, MEAN","[2]; 50 mg/kg, second assay",8.83
same,"CD45- CD4- cell subset, relative percentage, MEAN","[2]; 50 mg/kg, second assay",12.05
same,"CD45- CD8+ cell subset, relative percentage, MEAN","[2]; 50 mg/kg, second assay",0.18
same,"CD45- CD8- cell subset, relative percentage, MEAN","[2]; 50 mg/kg, second assay",18.65
same,"Ly5(B) cell subset, relative percentage, MEAN","[2]; 50 mg/kg, second assay",41.20
same,"NK+ CD3+ cell subset, relative percentage, MEAN","[2]; 50 mg/kg, second assay",2.18
same,"NK+ CD3- cell subset, relative percentage, MEAN","[2]; 50 mg/kg, second assay",3.83
same,"NK- CD3+ cell subset, relative percentage, MEAN","[2]; 50 mg/kg, second assay",39.60
same,"NK- CD3- cell subset, relative percentage, MEAN","[2]; 50 mg/kg, second assay",54.38
same,"TCR(T) cell subset, relative percentage, MEAN","[2]; 50 mg/kg, second assay",51.58
same,"CD4+ CD8+ cell subset, relative percentage, MEAN","[2]; 100 mg/kg, first assay",0.70
same,"CD4+ CD8- cell subset, relative percentage, MEAN","[2]; 100 mg/kg, first assay",36.85
same,"CD4+ CD11b+ cell subset, relative percentage, MEAN","[2]; 100 mg/kg, first assay",0.95
same,"CD4+ CD11b- cell subset, relative percentage, MEAN","[2]; 100 mg/kg, first assay",23.73
same,"CD4- CD8+ cell subset, relative percentage, MEAN","[2]; 100 mg/kg, first assay",7.03
same,"CD4- CD8- cell subset, relative percentage, MEAN","[2]; 100 mg/kg, first assay",55.50
same,"CD4- CD11b+ cell subset, relative percentage, MEAN","[2]; 100 mg/kg, first assay",4.10
same,"CD4- CD11b- cell subset, relative percentage, MEAN","[2]; 100 mg/kg, first assay",71.23
same,"CD45+ CD4+ cell subset, relative percentage, MEAN","[2]; 100 mg/kg, first assay",23.25
same,"CD45+ CD4- cell subset, relative percentage, MEAN","[2]; 100 mg/kg, first assay",52.10
same,"CD45+ CD8+ cell subset, relative percentage, MEAN","[2]; 100 mg/kg, first assay",6.43
same,"CD45+ CD8- cell subset, relative percentage, MEAN","[2]; 100 mg/kg, first assay",63.43
same,"CD45- CD4+ cell subset, relative percentage, MEAN","[2]; 100 mg/kg, first assay",15.35
same,"CD45- CD4- cell subset, relative percentage, MEAN","[2]; 100 mg/kg, first assay",9.30
same,"CD45- CD8+ cell subset, relative percentage, MEAN","[2]; 100 mg/kg, first assay",0.83
same,"CD45- CD8- cell subset, relative percentage, MEAN","[2]; 100 mg/kg, first assay",29.30
same,"Ly5(B) cell subset, relative percentage, MEAN","[2]; 100 mg/kg, first assay",56.75
same,"NK+ CD3+ cell subset, relative percentage, MEAN","[2]; 100 mg/kg, first assay",1.83
same,"NK+ CD3- cell subset, relative percentage, MEAN","[2]; 100 mg/kg, first assay",3.88
same,"NK- CD3+ cell subset, relative percentage, MEAN","[2]; 100 mg/kg, first assay",38.38
same,"NK- CD3- cell subset, relative percentage, MEAN","[2]; 100 mg/kg, first assay",55.95
